Measured values as given in ChEMBL document CHEMBL5329196, “Development of truncated Battacin antimicrobials featuring novel N-terminal fatty acids with an excellent safety profile” (Bioorg Med Chem Lett, 2023).
Values after ≈ are worked out from the molar mass of the structure shown. Where a SMILES comes first, the peptide text is derived from it.

What was measured:
[1] = Pro-aggregation of the compound in human NCI-H460 cells at 1 mM by fluorescence microscopic analysis; type: physicochemical, cell-based; details: nci-h460, 1000 µM
[2] = Pro-aggregation of the compound in human NCI-H460 cells at 1 mM by Bright field microscopic analysis; type: physicochemical, cell-based; details: nci-h460, 1000 µM
NCI-H460 = assay: (§1) Cytotoxicity against human NCI-H460 cells assessed as reduction in cell viability measured after 24 hrs by quantitative live/dead fluorescence microscopy; type: toxicity, cell-based; details: nci-h460
MDA-MB-231 = assay: (§2) Cytotoxicity against human MDA-MB-231 cells assessed as reduction in cell viability measured after 24 hrs by quantitative live/dead fluorescence microscopy; type: toxicity, cell-based; details: mda-mb-231
[3] = Pro-aggregation of the compound in human MDA-MB-231 cells at 1 mM by Bright field microscopic analysis; type: physicochemical, cell-based; details: mda-mb-231, 1000 µM
[4] = Pro-aggregation of the compound in human MDA-MB-231 cells at 1 mM by fluorescence microscopic analysis; type: physicochemical, cell-based; details: mda-mb-231, 1000 µM
Erythrocyte = assay: (§3) Induction of hemolysis in mouse RBC assessed as induction of hemoglobin release incubated for 1 hr by absorbance based analysis; type: toxicity, cell-based; details: erythrocyte
Staphylococcus aureus = assay: Antibacterial activity against Staphylococcus aureus assessed as inhibition of bacterial growth incubated for 24 hrs by visual inspection analysis; type: functional
[5] = as §1; type: toxicity, cell-based; details: human, NCI-H460 cells
[6] = as §2; type: toxicity, cell-based; details: human, MDA-MB-231 cells
[7] = Selectivity ratio of EC50 for cytotoxicity against human MDA-MB-231 cells to EC50 for cytotoxicity against human NCI-H460 cells; type: functional
[8] = as §3; type: toxicity, cell-based, Erythrocyte; details: mouse, mouse red blood cells (erythrocytes)
[9] = Therapeutic index, ratio of EC50 for induction of hemolytic activity against mouse RBC to MIC for antibacterial activity against Staphylococcus aureus; type: toxicity; details: mouse red blood cells (erythrocytes), read-out: TI
[10] = Induction of hemolysis in mouse RBC assessed as induction of hemoglobin release at ~400 uM incubated for 1 hr by absorbance based analysis; type: toxicity, cell-based, Erythrocyte; details: mouse red blood cells (erythrocytes), read-out: Activity
[11] = Induction of hemolysis in mouse RBC assessed as induction of hemoglobin release at ~100 uM incubated for 1 hr by absorbance based analysis; type: toxicity, cell-based, Erythrocyte; details: mouse red blood cells (erythrocytes), read-out: Activity

Activity [1]	Activity [2]	Activity [3]	Activity [4]	MIC (Staphylococcus aureus) [µM]	Compound	further results
Not Active	Not Active	Not Active	Not Active		POLYMYXIN B	EC50 (NCI-H460): 181 µM; EC50 (MDA-MB-231): > 1000 µM; EC50 (Erythrocyte): ≥ 1000 µM
				1 (≈ 0.764 µg/mL)	CCc1ccc(/C=C/CCC(=O)N[C@H](CCN)C(=O)N[C@@H](CCN)C(=O)N[C@@H](CC(C)C)C(=O)N[C@H](Cc2ccccc2)C(=O)N[C@@H](CCN)C(N)=O)cc1	
				75.8 (≈ 50 µg/mL)	C=CCCC(=O)N[C@H](CCN)C(=O)N[C@@H](CCN)C(=O)N[C@@H](CC(C)C)C(=O)N[C@H](Cc1ccccc1)C(=O)N[C@@H](CCN)C(N)=O	
				18.2 (≈ 12.5 µg/mL)	C=CC(C)C(C)C(=O)N[C@H](CCN)C(=O)N[C@@H](CCN)C(=O)N[C@@H](CC(C)C)C(=O)N[C@H](Cc1ccccc1)C(=O)N[C@@H](CCN)C(N)=O (stereo partly drawn)	
				2 (≈ 1.53 µg/mL)	COc1ccc(/C=C/CCC(=O)N[C@H](CCN)C(=O)N[C@@H](CCN)C(=O)N[C@@H](CC(C)C)C(=O)N[C@H](Cc2ccccc2)C(=O)N[C@@H](CCN)C(N)=O)cc1	
				4.5 (≈ 3.1 µg/mL)	CCC(C)CCC(=O)N[C@H](CCN)C(=O)N[C@@H](CCN)C(=O)N[C@@H](CC(C)C)C(=O)N[C@H](Cc1ccccc1)C(=O)N[C@@H](CCN)C(N)=O (stereo partly drawn) (HELM PEPTIDE1{[CCC(C)CCC(=O)[*:2]].[NCC[C@@H](N[*:1])C(=O)[*:2]].[Dab].L.[dF].[Dab].[am]}$$$$V2.0)	
Active	Active	Active	Active	1 (≈ 0.792 µg/mL)	CCCCc1ccc(/C=C/CCC(=O)N[C@H](CCN)C(=O)N[C@@H](CCN)C(=O)N[C@@H](CC(C)C)C(=O)N[C@H](Cc2ccccc2)C(=O)N[C@@H](CCN)C(N)=O)cc1	EC50 at 24 h [5]: 31 µM; EC50 at 24 h [6]: 67 µM; Ratio EC50 [7]: 2; EC50 at 1 h [8]: ~90 µM; selectivity ratio [9]: 60; hemolysis at 1 h, 400 µM [10]: 77%; hemolysis at 1 h, 100 µM [11]: 56%
Active	Active	Active	Active	1 (≈ 0.764 µg/mL)	CC(C)C[C@H](NC(=O)[C@H](CCN)NC(=O)[C@@H](CCN)NC(=O)C(C)C(C)/C=C/c1ccccc1)C(=O)N[C@H](Cc1ccccc1)C(=O)N[C@@H](CCN)C(N)=O (stereo partly drawn)	EC50 at 24 h [5]: 324 µM; EC50 at 24 h [6]: 898 µM; Ratio EC50 [7]: 2; EC50 at 1 h [8]: ≥ 400 µM; selectivity ratio [9]: > 267; hemolysis at 1 h, 400 µM [10]: 3.4%
				2.1 (≈ 1.55 µg/mL)	CC(C)C[C@H](NC(=O)[C@H](CCN)NC(=O)[C@@H](CCN)NC(=O)CC/C=C/c1ccccc1)C(=O)N[C@H](Cc1ccccc1)C(=O)N[C@@H](CCN)C(N)=O	
Active	Active	Active	Active	1 (≈ 0.794 µg/mL)	CCCOc1ccc(/C=C/CCC(=O)N[C@H](CCN)C(=O)N[C@@H](CCN)C(=O)N[C@@H](CC(C)C)C(=O)N[C@H](Cc2ccccc2)C(=O)N[C@@H](CCN)C(N)=O)cc1	EC50 at 24 h [5]: 90 µM; EC50 at 24 h [6]: 221 µM; Ratio EC50 [7]: 2; EC50 at 1 h [8]: ~330 µM; selectivity ratio [9]: 135; hemolysis at 1 h, 100 µM [11]: 2.1%
				1.3 (≈ 0.756 µg/mL)	CN[C@@H]1[C@H](O[C@H]2[C@H](O[C@H]3[C@H](O)[C@@H](O)[C@H](N=C(N)N)[C@@H](O)[C@@H]3N=C(N)N)O[C@@H](C)[C@]2(O)C=O)O[C@@H](CO)[C@H](O)[C@H]1O [STREPTOMYCIN]	
